# Experimental data published in paper PMC8625466 (Viruses, 2021).
# Like-named read-outs stand apart in the source and are kept apart here.
# Key:
# FMDV = assay: organism not typed; type: cell-based, Foot-and-mouth-disease virus serotype A (NP05)
# FMDV 3C^pro = FMDV 3C^pro (Foot-and-mouth disease virus, UniProt P03306); assay: cell-based
# in vitro = settings: hamster, Cytotoxicity (CC50)
# [1] = BHK-21, 0 h, read-out: Viral (EC50)
# [2] = BHK-21, 2 h, read-out: Post-Viral (EC50)
# [3] = BHK-21, read-out: Prophylaxis (EC50)
# [4] = read-out: EC50 (low antiviral activities)
# Sequence of FMDV 3C^pro (P03306 1650-1862 limits assumed): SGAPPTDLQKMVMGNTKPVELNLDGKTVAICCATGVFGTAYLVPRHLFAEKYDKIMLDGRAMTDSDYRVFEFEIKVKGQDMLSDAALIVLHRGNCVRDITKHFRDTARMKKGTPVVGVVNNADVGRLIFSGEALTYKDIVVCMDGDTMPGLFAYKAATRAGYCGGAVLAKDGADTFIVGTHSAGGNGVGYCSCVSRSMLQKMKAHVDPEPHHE
molecule,measurement,setting,value
COc1cc(O)c2c(=O)cc(-c3ccc(O)c(O)c3)oc2c1 [7-O-Methylluteolin],EC50,FMDV; [1],75 to 100 µM
same,EC50,FMDV; [2],75 to 100 µM
same,EC50,FMDV; [3],> 100 µM
same,EC50,FMDV; [4],75 to 100 µM
same,IC50,FMDV 3C^pro,> 200 µM
same,CC50,in vitro,> 100 µM
O=c1cc(-c2ccc(O)cc2)oc2cc(O)cc(O)c12 [Apigenin],EC50,FMDV; [1],75 to 100 µM
same,EC50,FMDV; [2],75 to 100 µM
same,EC50,FMDV; [3],> 100 µM
same,EC50,FMDV; [4],75 to 100 µM
same,IC50,FMDV 3C^pro,> 200 µM
same,CC50,in vitro,68.7 ± 4.1 µM
O=C(O)[C@H]1O[C@@H](Oc2cc3oc(-c4ccccc4)cc(=O)c3c(O)c2O)[C@H](O)[C@@H](O)[C@@H]1O [Baicalin],CC50,in vitro,> 100 µM
COc1ccc(-c2coc3cc(O[C@@H]4O[C@H](CO)[C@@H](O)[C@H](O)[C@H]4O)ccc3c2=O)cc1O [Calycosin 7-O-glucoside],CC50,BHK-21 cells,> 100 µM
O=C/C=C/c1ccccc1 [Cinnamaldehyde],CC50,in vitro,> 100 µM
COc1ccc(-c2cc(=O)c3c(O)cc(O[C@@H]4O[C@H](CO[C@@H]5O[C@@H](C)[C@H](O)[C@@H](O)[C@H]5O)[C@@H](O)[C@H](O)[C@H]4O)cc3o2)cc1O [Diosmin],CC50,in vitro,> 100 µM
O=C(O[C@@H]1Cc2c(O)cc(O)cc2O[C@@H]1c1cc(O)c(O)c(O)c1)c1cc(O)c(O)c(O)c1 [EGCG],CC50,BHK-21 cells,> 100 µM
COc1cc(C2Oc3cc([C@H]4Oc5cc(O)cc(O)c5C(=O)[C@@H]4O)ccc3OC2CO)ccc1O (stereo partly drawn) [Flavobin],CC50,in vitro,45.1 µM
COc1ccc([C@@H]2CC(=O)c3c(O)cc(O[C@@H]4O[C@H](CO[C@@H]5O[C@@H](C)[C@H](O)[C@@H](O)[C@H]5O)[C@@H](O)[C@H](O)[C@H]4O)cc3O2)cc1O [Hesperidin],CC50,BHK-21 cells,> 100 µM
COc1ccc(-c2cc(=O)c3c(O)cc(O)c(-c4cc(-c5cc(=O)c6c(O)cc(O)cc6o5)ccc4OC)c3o2)cc1 [Isoginkgetin],EC50,FMDV; [1],2.01 ± 0.07 µM
same,EC50,FMDV; [2],1.93 ± 0.21 µM
same,EC50,FMDV; [3],6.76 ± 0.8 µM
same,Fold increase of the FLuc over Renilla luciferase (Rluc) ratio,FMDV 3C^pro,2.65 fold
same,IC50,FMDV 3C^pro,39.03 ± 0.05 µM
same,CC50,in vitro,> 100 µM
"O=C(COc1cc(O)c2c(=O)cc(-c3ccccc3)oc2c1)c1ccc(F)cc1 [Kaempferol derivative, 7-[2-(4-Fluorophenyl)-2-oxoethoxy]-5-hydroxy-2-phenyl-4H-chromen-4-one]",CC50,in vitro,> 100 µM
COc1ccc(-c2cc(=O)c3c(O)cc(O[C@@H]4O[C@H](CO[C@@H]5O[C@@H](C)[C@H](O)[C@@H](O)[C@H]5O)[C@@H](O)[C@H](O)[C@H]4O)cc3o2)cc1 [Linarin],CC50,BHK-21 cells,> 100 µM
O=C(/C=C/c1ccc(O)c2c1[C@H](C(=O)O)[C@@H](c1ccc(O)c(O)c1)O2)O[C@H](Cc1ccc(O)c(O)c1)C(=O)O [Lithospermic acid],CC50,in vitro,> 100 µM
O=c1cc(-c2ccc(O)c(O)c2)oc2cc(O)cc(O)c12 [Luteolin],EC50,FMDV; [1],9.73 ± 0.94 µM
same,EC50,FMDV; [2],10 ± 0.98 µM
same,EC50,FMDV; [3],25.8 ± 1.29 µM
same,Fold increase of the FLuc over Renilla luciferase (Rluc) ratio,FMDV 3C^pro,1.86 fold
same,IC50,FMDV 3C^pro,176.7 ± 0.05 µM
same,CC50,in vitro,> 100 µM
O=c1cc(-c2ccccc2)oc2cc(O[C@@H]3O[C@H](CO[C@@H]4O[C@H](CO)[C@@H](O)[C@H](O)[C@H]4O)[C@@H](O)[C@H](O)[C@H]3O)c(O)c(O)c12 [Oroxin B],CC50,BHK-21 cells,85.9 ± 7.4 µM
C[C@@H]1O[C@@H](Oc2cc(O)c3c(=O)c(O)c(-c4ccc(O)c(O)c4)oc3c2)[C@H](O)[C@H](O)[C@H]1O [Quercetin 7-rhamnoside],CC50,BHK-21 cells,> 100 µM
same,EC50,FMDV; read-out: Post-Viral (EC50),75 to 100 µM
same,EC50,FMDV; read-out: Prophylaxis (EC50),> 100 µM
same,EC50,FMDV; read-out: Viral (EC50),> 100 µM
same,IC50,"FMDV 3C^pro; read-out: IC50, cell-based protease assay",> 200 µM
"NC(=O)c1ncn([C@@H]2O[C@H](CO)[C@@H](O)[C@H]2O)n1 [Ribavirin, reference compound]",EC50,FMDV; [1],41.8 ± 1.58 µM
same,EC50,FMDV; [2],133 ± 2.03 µM
same,EC50,FMDV; [3],283.9 ± 2.3 µM
same,CC50,in vitro,> 100 µM
"CCOC(=O)/C=C/[C@H](C[C@@H]1CCNC1=O)NC(=O)[C@@H](CC(=O)[C@@H](NC(=O)c1cc(C)on1)C(C)C)Cc1ccc(F)cc1 [Rupintrivir, reference compound]",EC50,FMDV; [1],1.99 ± 0.01 µM
same,EC50,FMDV; [2],1.69 ± 0.19 µM
same,EC50,FMDV; [3],11.8 ± 1.03 µM
same,Fold increase of the FLuc over Renilla luciferase (Rluc) ratio,FMDV 3C^pro,4.27 fold
same,IC50,FMDV 3C^pro,13.5 ± 0.19 µM
same,CC50,in vitro,> 100 µM
O=C(/C=C/c1ccc(O)cc1)OC[C@H]1O[C@@H](Oc2c(-c3ccc(O)cc3)oc3cc(O)cc(O)c3c2=O)[C@H](O)[C@@H](O)[C@@H]1O [Tiliroside],CC50,in vitro,> 100 µM
Epicatechin-3-gallate,CC50,BHK-21 cells,77 ± 8.85 µM
Hyperoxide,CC50,BHK-21 cells,> 100 µM
"Methyl Hesperidin,(S)",CC50,BHK-21 cells,> 100 µM
